Data on one substance can be found in US8653023B1, “Dual beneficial effect of dopamine enhancing and neuroprotective actions of PKC delta inhibitors for treatment of Parkinson's disease” (Iowa State University Research Foundation, Inc., priority 2006, dated 2014).

Where two headings read alike, the source gives them in different places. * marks the point of attachment. Cbz = O=C(OCc1ccccc1)*; CH2F = FC*

For test [1], the system named is dopaminergic neuronal cells. As to the kind of experiment: 6-OHDA-induced DNA fragmentation (genomic DNA fragmentation assay). The test is classed as cell-based. An excerpt: (§1) The ability of a PKCd inhibitor to decrease PKCd activity, for example, neurodegeneration or apoptotic activity, can be assessed using standard techniques known to one skilled in the art, including commercially available assays. These include apoptotic DNA Ladder assays, Cell Death Detection ELISA^PLUS (from Roche Applied Sciences), Caspase-3 Activity Assay^PLUS (from Roche Applied Sciences), terminal deoxynucleotidyl transferase-mediated dUTP [deoxy-uridine triphosphate] nick end labeling (TUNEL) assays. DNA-binding dyes or stains such as […] or DAPI or propidium iodide may be used to assess nuclear morphology and DNA damage. Kaul S, Kanthasamy A, Kitazawa M, Anantharam V, Kanthasamy A G, Caspase-3 dependent proteolytic activation of protein kinase C delta mediates and regulates 1-methyl-4-phenylpyridinium (MPP^+)-induced apoptotic cell death in dopaminergic cells: relevance to oxidative stress in dopaminergic degeneration. Eur J Neurosci. 2003 September; 18(6):1387-401.

For test [2], the system named is dopaminergic neuronal cells. The experiment in a line: MPP+ induced DNA fragmentation (genomic DNA fragmentation assay). The format is cell-based.
Excerpt: as §1

As for “N-benzyloxycarbonyl-Asp(OMe)-Ile-Pro-Asp(OMe)-FMK (Cbz-D(OMe)IPD(OMe)-CH2F; SMILES CC[C@H](C)[C@H](NC(=O)[C@H](CC(=O)OC)NC(=O)OCc1ccccc1)C(=O)N1CCC[C@H]1C(=O)N[C@@H](CC(=O)OC)C(=O)CF; listed as Homo sapiens)”, the results for the “6-OHDA-induced DNA fragmentation” value in test [1] and in test [1] (concentration as low as 3 μM) were “effectively blocked” and “almost completely inhibits”, respectively. For the same substance, the “MPP+ induced DNA fragmentation” value in test [2] is on record as “inhibited”.
